Laboratory results taken from patent US7939098B2, “Compositions and method for transmucosal drug delivery and cryoprotection” (Femina Pharma Incorporated, priority 2002, dated 2011).

Experiments:
porcine nasal mucosa = assay: Transepithelial transport of [3H]water across porcine nasal mucosa in vitro, continuous flow apparatus; assay type: in vitro ADME
Protocol: (§1) Porcine buccal and nasal mucosa (lateral) was obtained at slaughter and utilized within 3 hours of harvest. Tissue samples approximately 8 mm in diameter were mounted between two halves of through-flow mucosal perfusion cells exposing an area of epithelial surface approximately 0.20 cm^2 for transepithelial transport. The chambers were mounted on water-jacketed blocks maintained at 37° C. During the set up period, the exposed epithelial surface was kept moist with phosphate buffered saline (PBS, 0.01M, pH 7.4). The buffer solution was removed by vacuum immediately prior to application of labeled test compound. […] In the receiver compartment, PBS was continuously pumped through the lower chamber (i.e., blood compartment) as a collection fluid at rate of 1.8 mL/hr, which was previously determined to be sufficient to maintain sink conditions in the receiver compartment. This fluid was collected into scintillation vials for 1 or 2 hour intervals over the entire collection period and radioactivity was determined by liquid scintillation counter. Transepithelial flux of the marker solute in the presence of various concentrations of permeation enhancers was calculated at each sampling interval from the relationship: Flux=Q/At where Q is the finite quantity of solute traversing the tissue barrier (dpm) in time t (min); A is the area of epithelial surface exposed in cm^2. […]

porcine buccal mucosa = assay: Transepithelial transport of [3H]water across porcine buccal mucosa in vitro, continuous flow apparatus; assay type: in vitro ADME
Protocol: as §1

healthy female rabbits = details: rabbit, in vivo
Protocol: A 10 day, repeat dose, vaginal toxicity study was conducted in healthy female rabbits. Three doses and two controls were used. […] Doses of SUPPOCIRE® and SUPPOCIRE® plus ethoxydiglycol were used as controls. The study findings are summarized below.

[1] = essentially the same amount as i.v.; cited from earlier work

Row | SMILES | increase of mean steady state Kp compared to control PBS (porcine nasal mucosa; 15% (v/v) TRANSCUTOL versus control PBS) [%] | mean steady state Kp of [3H]water (porcine nasal mucosa; in the presence of 15% (v/v) TRANSCUTOL, n=7) | increase of mean steady state Kp as compared to control (porcine buccal mucosa; 30% (v/v) TRANSCUTOL versus control) [%] | mean steady state Kp of [3H]water (porcine buccal mucosa; in the presence of 30% (v/v) TRANSCUTOL, n=7) | NOEL (healthy female rabbits; female, 10 days) [mg/3 kg rabbit dose] | NOEL, equivalent human dose (healthy female rabbits; female, 10 days) [mg] | finding on cervix or uterus (healthy female rabbits) | one-time human dose extrapolated to be safe (healthy female rabbits) [mg] | systemic side effects (healthy female rabbits) | systemic level after oral administration compared to i.v. administration [1]
1 | CCOCCOCCO [TRANSCUTOL®, diethyleneglycol monoethyl ether] | ~37 | 1.83±0.02×10^−3 cm/min | ~25 | 1.11±0.01×10^−3 cm/min |  |  |  |  |  | 
2 | NCCCC(O)(P(=O)(O)O)P(=O)(O)O [alendronate] |  |  |  |  | 0.013 | 0.3 | No erythema, inflammation or erosion | 10 | no systemic side effects | below 1%
